Experiment: Inhibition of serum complement system-mediated hemolysis of human RBCs
Settings: not given; call rule not given here

Question: Which IC50 does the source give for `C[C@H]1CCCC(C)(C)[C@@]12Cc1cc(C(=O)O)ccc1O2` here?
Answer: Not Active

Same assay, conditions: read-out: IC50

Question: Which IC50 does the source give for `CCCN[C@H]1CC[C@H](C)[C@]2(Cc3cc(C(=O)O)ccc3O2)C1(C)C` here?
Answer: 2750 µM

Question: For `C[C@@H]1CCC2C(C)(C)[C@H](O)[C@H](O)C[C@]2(C)[C@@]12Cc1c(O)cc(C(=O)O)c(C=O)c1O2` (stereo partly specified), which IC50 is on record?
Answer: 570 µM

Question: With `COc1ccc(C(=O)O)c2c1C[C@@](C)([C@H]1CC=C(C)CC1)O2` as the compound, how does the IC50 read?
Answer: 680 µM

Question: With `C[C@H]1CC[C@@H](O)C(C)(C)[C@@]12Cc1cc(C(=O)O)ccc1O2` as the compound, how does the IC50 read?
Answer: 517 µM

Question: Which IC50 does the source give for `C=CCO[C@@H]1CC[C@H](C)[C@]2(Cc3cc(C(=O)O)ccc3O2)C1(C)C` here?
Answer: 3080 µM

Question: Which IC50 does the source give for `C[C@H]1CC[C@@H](OCC(O)CO)C(C)(C)[C@@]12Cc1cc(C(=O)O)ccc1O2` (stereo partly specified) here?
Answer: 4720 µM

Question: With `C[C@H]1CC[C@H](O)C(C)(C)[C@@]12Cc1cc(C(=O)O)ccc1O2` as the compound, how does the IC50 read?
Answer: 12100 µM

Question: Which IC50 does the source give for `C[C@H]1CC[C@@H](OCCO)C(C)(C)[C@@]12Cc1cc(C(=O)O)ccc1O2` here?
Answer: 4400 µM

Question: With `CCCO[C@@H]1CC[C@H](C)[C@]2(Cc3cc(C(=O)O)ccc3O2)C1(C)C` as the compound, how does the IC50 read?
Answer: 548 µM

Question: Which IC50 does the source give for `COc1ccc(C(=O)O)c2c1C[C@@](C)([C@@H]1CC[C@](C)(O)[C@H](O)C1)O2` here?
Answer: 1600 µM

Question: For `CC1=CC[C@H]([C@]2(C)Cc3c(O)ccc(C(=O)O)c3O2)CC1`, which IC50 is on record?
Answer: 2150 µM

Question: With `C[C@H]1CC[C@@](O)(CC(O)CO)C(C)(C)[C@@]12Cc1cc(C(=O)O)ccc1O2` (stereo partly specified) [listing 1 of 2 here] as the compound, how does the IC50 read?
Answer: 480 µM

Question: Which IC50 does the source give for `CCCN[C@@H]1CC[C@H](C)[C@]2(Cc3cc(C(=O)O)ccc3O2)C1(C)C` here?
Answer: 211 µM

Question: With `C[C@H]1CC[C@@](O)(CC(O)CO)C(C)(C)[C@@]12Cc1cc(C(=O)O)ccc1O2` (stereo partly specified) [listing 2 of 2 here] as the compound, how does the IC50 read?
Answer: 3290 µM

Question: With `COC(=O)c1ccc2c(c1)C[C@@]1(O2)[C@@H](C)CC[C@@H](O)C1(C)C` [FILIFOLINOL] as the compound, how does the IC50 read?
Answer: 2000 µM

Source: ChEMBL document CHEMBL1154328, “New inhibitors of the complement system inspired in K76-COOH. A SAR study of filifolinol derivatives through modifications of the C3' position” (Bioorg Med Chem Lett, 2009)
